Results taken from publication PMC3420979 (Bioorganic & medicinal chemistry letters, 2012).

Tests used:
CpCDPK1 = biological target: T1, CpCDPK1 (Cryptosporidium parvum, UniProt A3FQ16); test: Enzyme inhibition assay, CpCDPK1; assay type: biochemical; details: IC50 against CpCDPK1 (nM), stated for both parasite CDPK1s
T1 sequence (A3FQ16 1-538): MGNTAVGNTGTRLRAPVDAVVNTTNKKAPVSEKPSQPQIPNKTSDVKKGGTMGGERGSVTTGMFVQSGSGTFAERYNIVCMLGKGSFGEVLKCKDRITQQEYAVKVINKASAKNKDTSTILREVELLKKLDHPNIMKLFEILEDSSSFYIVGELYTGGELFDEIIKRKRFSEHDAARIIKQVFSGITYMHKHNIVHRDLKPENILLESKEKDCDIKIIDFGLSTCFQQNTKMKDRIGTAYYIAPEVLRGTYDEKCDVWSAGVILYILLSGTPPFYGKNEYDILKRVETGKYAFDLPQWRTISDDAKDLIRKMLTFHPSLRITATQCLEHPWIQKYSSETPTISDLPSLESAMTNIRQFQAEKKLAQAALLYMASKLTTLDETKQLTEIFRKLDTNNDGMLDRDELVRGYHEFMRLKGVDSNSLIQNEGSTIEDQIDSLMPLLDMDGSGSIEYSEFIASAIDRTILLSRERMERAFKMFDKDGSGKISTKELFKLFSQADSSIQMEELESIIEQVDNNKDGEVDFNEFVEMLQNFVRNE

Abl = Abl (Homo sapiens, UniProt P00519); test: Human kinase inhibition, Abl; assay type: biochemical; details: parasite CDPK1s versus human Src or Abl
Abl, sequence (P00519 whole entry): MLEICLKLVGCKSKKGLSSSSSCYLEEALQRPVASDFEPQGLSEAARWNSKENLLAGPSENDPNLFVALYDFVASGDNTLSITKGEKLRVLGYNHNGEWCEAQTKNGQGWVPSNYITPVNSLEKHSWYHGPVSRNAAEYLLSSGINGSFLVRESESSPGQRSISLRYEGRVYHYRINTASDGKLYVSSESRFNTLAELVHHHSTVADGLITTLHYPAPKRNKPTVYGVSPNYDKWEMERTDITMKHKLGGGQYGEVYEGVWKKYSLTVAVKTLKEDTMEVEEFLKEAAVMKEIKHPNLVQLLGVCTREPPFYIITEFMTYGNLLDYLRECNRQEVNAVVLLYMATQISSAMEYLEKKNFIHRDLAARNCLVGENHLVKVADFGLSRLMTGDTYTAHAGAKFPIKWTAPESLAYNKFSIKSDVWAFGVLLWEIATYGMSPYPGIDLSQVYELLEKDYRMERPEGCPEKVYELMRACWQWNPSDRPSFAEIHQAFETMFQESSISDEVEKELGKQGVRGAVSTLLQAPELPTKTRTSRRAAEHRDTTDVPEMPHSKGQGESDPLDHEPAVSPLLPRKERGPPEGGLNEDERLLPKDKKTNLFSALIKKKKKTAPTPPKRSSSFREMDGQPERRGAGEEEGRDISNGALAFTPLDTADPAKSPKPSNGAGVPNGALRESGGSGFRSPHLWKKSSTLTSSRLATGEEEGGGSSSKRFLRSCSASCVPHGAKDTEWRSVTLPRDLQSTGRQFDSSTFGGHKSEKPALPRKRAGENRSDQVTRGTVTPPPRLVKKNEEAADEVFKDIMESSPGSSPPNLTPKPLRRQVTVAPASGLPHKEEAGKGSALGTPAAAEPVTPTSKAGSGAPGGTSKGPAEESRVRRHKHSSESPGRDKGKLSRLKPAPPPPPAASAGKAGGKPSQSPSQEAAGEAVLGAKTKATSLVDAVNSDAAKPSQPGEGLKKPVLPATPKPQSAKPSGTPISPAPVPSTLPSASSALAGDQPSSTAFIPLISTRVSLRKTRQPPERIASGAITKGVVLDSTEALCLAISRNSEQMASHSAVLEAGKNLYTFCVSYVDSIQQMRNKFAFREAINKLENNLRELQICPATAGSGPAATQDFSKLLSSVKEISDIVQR

## Nc1nc2ccc(C(=O)c3ccccc3)cc2n1CCC1CCNCC1 [7c]
CpCDPK1
  IC50: < 50 nM
Abl
  selectivity index over human Src or Abl: > 200 fold

## CN1CCN(CCn2c(N)nc3ccc(C(=O)c4ccccc4)cc32)CC1 [7p]
CpCDPK1
  IC50: < 50 nM
Abl
  selectivity index over human Src or Abl: > 200 fold
